Data set [1] is described as follows: Intrinsic clearance in rat liver microsome measured per mg of protein. As to conditions: liver microsomes. Format: ADME. (Liver microsomes are a subcellular fraction often used to study metabolism.)
Data set [2] can be described thus: Intrinsic clearance in human liver microsome measured per mg of protein. To be noted: liver microsomes. Format: ADME.
Data set [3] in a line: Distribution coefficient, log D of the compound. Format: physicochemical. As to conditions: octanol/water.
Data set [4] can be described thus: Oral bioavailability in rat at 3 mg/kg. Format: ADME, organism-based. As to conditions: in vivo.
Data set [5] can be described thus: Volume of distribution at steady state in rat at 1 mg/kg, iv. Format: ADME, organism-based. As to conditions: in vivo, read-out: Vdss. Details: dose 1 mg/kg, route intravenous.
The nature of data set [6]: Half life in rat at 1 mg/kg, iv. Format: ADME, organism-based. To be noted: in vivo. Details: dose 1 mg/kg, route intravenous.
The nature of data set [7]: Half life in rat at 3 mg/kg, po. The data set is classed as ADME, organism-based. Details: dose 3 mg/kg, route oral. As to conditions: in vivo.
Data set [8] is described as follows: Cmax in rat at 3 mg/kg, po. Format: ADME, organism-based. As to conditions: in vivo. Details: dose 3 mg/kg, route oral.
The nature of data set [9]: AUC in rat at 3 mg/kg, po. Details: dose 3 mg/kg, route oral. Format: ADME, organism-based. As to conditions: plasma.
Data set [10] can be described thus: AUC in rat at 1 mg/kg, iv. To be noted: plasma. The data set is classed as ADME, organism-based. Details: dose 1 mg/kg, route intravenous.
A short description of data set [11]: Clearance in rat at 1 mg/kg, iv. The data set is classed as ADME, organism-based. Details: dose 1 mg/kg, route intravenous. As to conditions: in vivo.
Data set [12] is described as follows: Tmax in rat at 3 mg/kg, po. Format: ADME, organism-based. Details: dose 3 mg/kg, route oral. As to conditions: in vivo.

A word on the microsomal CLint: it is a measure of how fast metabolising enzymes remove a compound, apart from limits set by blood flow. As usually defined, the logD is lipophilicity at a set pH, counting ionised and neutral species. The low end stands for a more hydrophilic compound, the high end for a more lipophilic compound. As a reminder, the bioavailability is the share of a dose that reaches the circulation, judged against a reference dose that is usually intravenous. Lower therefore signals little systemic uptake. For orientation: half-life means the time in which the quantity being followed falls by half. Usually Cmax stands for the peak of the concentration-time curve. Broadly, the AUC is the area under the concentration-time curve, a measure of exposure. Lower therefore signals less exposure. What is called clearance is the rate of elimination divided by the concentration. Low readings indicate inefficient removal, high ones efficient removal. One may read the Tmax as the time from dosing to the highest level.

With `C[C@H](NC(=O)[C@H]1NCC[C@@H]1O)c1ccc(-c2noc(CCC3CCCCC3)n2)cc1`, the intrinsic clearance (microsomal CLint) in data set [1] is 50.2 µL/min/mg; in data set [2], less than 4.5 µL/min/mg. The logD in data set [3] amounted to 3.6.

For `C[C@H](NC(=O)[C@H]1NCC[C@@H]1O)c1ccc(-c2noc(CCC3CCCC3)n2)cc1`, the intrinsic clearance (microsomal CLint) in data set [1] came to 49.5 µL/min/mg; in data set [2] it was 12 µL/min/mg. Further, the bioavailability in [4] amounted to 17.6%. In addition, the Vd in [5] worked out at 5.55 L/kg. For the same molecule, the half-life was 4.3 h in data set [6] and 7.55 h in [7]. For the same molecule, the Cmax in [8] was determined as 82.5 ng/mL. Also, the AUC in data set [9] stood at 232 ng·h/mL; in data set [10], 439 ng·h/mL. This molecule also displayed a clearance in [11] of 37.1 mL/min/kg. The same molecule returned a logD in data set [3] of 2.9. In addition, the Tmax in data set [12] was 0.33 h.

Turning to `CC[C@H](NC(=O)[C@H]1NCC[C@@H]1O)c1ccc(-c2noc(CCC3CCCCC3)n2)cc1`, the microsomal CLint in data set [1] was found to be 38.8 µL/min/mg; in data set [2] it was 10 µL/min/mg. In data set [4], this molecule gave a bioavailability of 15.3%. The Vd in [5] came to 7.86 L/kg. For the same molecule, the half-life in data set [6] and in data set [7] was 1.64 h in each case. The molecule also registered a Cmax in data set [8] of 37.5 ng/mL. Further, the AUC in [9] came to 94.8 ng·h/mL; in data set [10], 204 ng·h/mL. In data set [11], this molecule displayed a clearance of 81.8 mL/min/kg. In addition, in data set [3], the logD stood at 4.3. For the same molecule, in [12], the Tmax amounted to 0.75 h.

Turning to `CCCCCCCc1nc(-c2ccc(CNC(=O)[C@H]3NCC[C@@H]3O)cc2)no1`, the microsomal CLint in data set [1] is 60 µL/min/mg; in data set [2] it was 45 µL/min/mg. In data set [3], this molecule returned a logD of 3.7.

The values above are taken from ChEMBL document CHEMBL1208743, “Discovery of novel sphingosine kinase-1 inhibitors. Part 2” (Bioorg Med Chem Lett, 2010).
